Assay results: PubChem BioAssay (NCI)
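In this assay, cells in 96-well plates receive the compound at five concentrations for 48 hours. Endpoints are linearly interpolated between the surrounding concentrations. Abbreviation: GI50, concentration required for 50% inhibition of growth. TGI denotes the concentration required for complete inhibition of growth.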

Key:
Assay in all cases: inhibition of tumour cell growth, NCI panel, 48 h
[1] = system: HCC-2998 colon
[2] = system: SF-295 CNS
[3] = system: HT29 colon
[4] = system: CCRF-CEM leukemia
[5] = system: EKVX NSCLC
[6] = system: PC-3 prostate
[7] = system: HL-60(TB) leukemia
[8] = system: HS 578T breast
[9] = system: UACC-62 melanoma
[10] = system: HOP-92 NSCLC

Row | Structure (SMILES) | TGI [1] [µM] | TGI [2] [µM] | TGI [3] [µM] | TGI [4] [µM] | TGI [5] [µM] | TGI [6] [µM] | TGI [7] [µM] | TGI [8] [µM] | TGI [9] [µM] | TGI [10] [µM] | GI50 [1] [µM] | GI50 [2] [µM] | GI50 [3] [µM] | GI50 [5] [µM] | GI50 [10] [µM] | GI50 [6] [µM] | GI50 [7] [µM] | GI50 [8] [µM] | GI50 [9] [µM]
1 | CCOC(=O)Cc1cc(=O)[nH]c(-n2[nH]c(C)c(CCO)c2=O)n1 | > 100 | > 100 | > 100 | > 100 | > 100 | > 100 | > 100 | > 100 | > 100 |  |  |  |  |  |  |  |  |  | 
2 | O=C(NNc1nc(-c2ccccc2)cs1)Nc1ccccc1 | 70.6 | 83.6 | 76.2 | > 100 | > 100 | 39.1 |  | 74.3 | 40.2 |  |  |  |  |  |  |  |  |  | 
3 | CCOC(=O)C1CCCN1C(=O)c1ccccc1Cl (centres undefined) | > 100 | > 100 | > 100 | > 100 | > 100 |  | > 100 | > 100 | 88.3 | > 100 |  |  |  |  |  |  |  |  | 
4 | CSc1c(C)n([O-])c2cc(Cl)c(Cl)cc2[n+]1=O | 38 | > 100 | 33.7 | 4.58 | 31 | 38.9 |  | > 68.5 | 28.9 | 30.3 |  |  |  |  |  |  |  |  | 
5 | O=C1c2cc3ncsc3cc2C(=O)c2c(O)ccc(O)c21 | > 100 | > 100 | > 100 | > 100 | > 100 | > 100 |  | > 100 | > 100 | > 100 |  |  |  |  |  |  |  |  | 
6 | Cc1cc(OCC(O)CO)ccc1Cl (centres undefined) | > 100 | > 100 | > 100 | > 100 | > 100 |  | > 100 |  | > 100 | > 100 |  |  |  |  |  |  |  |  | 
7 | Cc1ccc(S(=O)(=O)NC(=O)NC(CC(=O)O)C(=O)O)cc1 (centres undefined) |  | > 100 | > 100 | > 100 |  | > 100 | > 100 | > 100 | > 100 | > 100 |  |  |  |  |  |  |  |  | 
8 | NC(=S)NS(=O)(=O)c1ccc(Cl)cc1 | > 100 | > 100 | > 100 | > 100 | > 100 | > 100 | > 100 | > 100 | > 100 |  |  |  |  |  |  |  |  |  | 
9 | CC(=O)c1c(O)cc(O)c(-c2c(C)cc(O)c3c2C(=O)c2cccc(O)c2C3=O)c1O |  | 26.9 | 31.5 |  | 31.9 | 30.6 | 79.7 | 34.6 | 29.1 | 26.1 |  |  |  |  |  |  |  |  | 
10 | CC(C)=C=CP(=O)(O)c1ccccc1 | > 100 | > 100 | > 100 |  | > 100 | > 100 | > 100 | > 100 | > 100 | > 100 |  |  |  |  |  |  |  |  | 
11 | CCCCOc1ccc(S(=O)(=O)/N=C(\NO)Nc2ccc(Cl)cc2)cc1 | 28.9 | 30.8 | 32.6 | 62.1 | 29.5 | 29.7 |  | 51.3 | 28.8 | 19.3 |  |  |  |  |  |  |  |  | 
12 | Cc1cc(S(=O)(=O)Nc2n[nH]c(Nc3ccccc3)n2)c(SSc2cc(Cl)c(C)cc2S(=O)(=O)Nc2n[nH]c(Nc3ccccc3)n2)cc1Cl |  | > 100 | > 100 | > 100 | > 100 | > 100 | 61.1 | > 100 | > 100 |  |  |  |  |  |  |  |  |  | 
13 | COc1ccc(S(=O)(=O)Nc2cc(Sc3cccc4cccnc34)c(O)c3ccccc23)cc1 | 21.3 | 13.3 | 10.4 |  | 10.9 | 10.6 | 4.94 | 28.9 | 6.83 | 5.93 | 6.7 | 2.23 | 0.823 | 1.44 | 1.55 | 0.512 | 1.18 | 3.09 | 2.04
14 | Cn1c(-c2c(C3=CC(=O)N(c4ccccc4)C3=O)c3ccccc3n2C)cc2ccccc21 | > 100 | > 100 | > 100 | > 100 | > 100 | > 100 | > 100 |  | > 100 | > 100 |  |  |  |  |  |  |  |  | 
15 | Cc1cc(O)c(C(C)C)cc1C(=S)Nc1ccc(Cl)cc1 | 33 | 28.3 | 27.9 | 16.7 | 25.3 | 23 | 24.9 | 28.9 | 22.3 |  |  |  |  |  |  |  |  |  | 
16 | COC(=O)C(CNC(=O)/C=C/c1ccc(OC(C)=O)c(OC(C)=O)c1)NC(=O)/C=C/c1ccc(OC(C)=O)c(OC(C)=O)c1 (centres undefined) | > 100 | > 100 | > 100 | > 100 | > 100 | > 100 |  | > 100 | > 100 | > 100 |  |  |  |  |  |  |  |  | 
17 | CNC(=O)C1OC(n2cnc3c(NCc4cccc(I)c4)nc(Cl)nc32)C(O)C1O (centres undefined) |  | 40.4 |  | 76.6 | 31.5 | 24.1 | > 100 | 18.7 | 24 |  |  |  |  |  |  |  |  |  | 
18 | CC(C)N1[C@@H]2CCCC[C@H]2N(C(C)C)[P+]1=O | > 100 | > 100 | > 100 | > 100 | > 100 |  |  | > 100 | > 100 | > 100 |  |  |  |  |  |  |  |  | 
19 | Cc1cc(OCc2nnc3n2N=C(c2cc(F)c(Cl)cc2Cl)/C(=C/c2ccc(-c4ccc(Cl)cc4)o2)S3)ccc1Cl | > 50 | > 50 | > 50 | > 50 | > 50 | > 50 | > 50 | > 50 | > 50 |  |  |  |  |  |  |  |  |  | 
20 | O=c1[nH]c2ccc(C(F)(F)F)cc2nc1C(F)(F)F | > 100 | > 100 | > 100 | 42.7 | > 100 | 62.7 |  |  | > 100 | 30.2 |  |  |  |  |  |  |  |  | 
21 | Cc1ccc2c(c1)Nc1ccccc1P2(=O)O | > 100 | > 100 | > 100 | > 100 | > 100 | > 100 | > 100 |  | > 100 | > 100 |  |  |  |  |  |  |  |  | 
22 | NS(=O)(=O)c1ccc(NCc2nc3ccccc3[nH]2)cc1 |  | > 100 | > 100 |  | > 100 | > 100 |  | > 100 | > 100 | > 100 |  |  |  |  |  |  |  |  | 
23 | CCOC(=O)CCC(NC(=O)c1ccc(Nc2nc3ccccc3nc2C(=O)OCC)s1)C(=O)OCC (centres undefined) | > 100 |  | > 100 |  | > 100 | > 100 | > 100 | > 100 | > 100 | > 100 |  |  |  |  |  |  |  |  | 
